Assay results reported in US11129782B2, “Derivatives of PPD useful for coloring hair and skin” (National University of Singapore, priority 2017, dated 2021).

Key:
[1] = tested on: HaCaT cells; test: In vitro cell cytotoxicity (MTT) assay on HaCaT cells; assay type: cell-based, human; settings: Homo sapiens, HaCaT; 72 h incubation; MTT
How it was run: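 HaCaT keratinocytes seeded at 5×10^3/well, after 24 h exposed 72 h to test compounds serially diluted from 500 μM to 1.9 μM in 10% FBS DMEM. MTT (1 mg/ml, 4 h) read at 570 nm; viability expressed as percent of untreated control.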

[2] = tested on: cysteine peptide (Ac-RFAACAA-COOH); test: Direct Peptide Reactivity Assay, cysteine peptide; settings: for % of Cysteine depletion, Avg / % of Cysteine depletion, Rep 2 / % of Cysteine depletion, Rep 3 / Reactivity Class: 1:10; for % of Cysteine depletion, Rep 1: peptide 0.02 mM : test chemical 0.2 mM (1:10); for Reactivity Class: cysteine
Protocol: For cysteine DPRA, an additional step was performed.
(§1) The mass spectrometric analysis was performed by use of a AB SCIEX QTRAP 5500 tandem mass spectrometry (MS/MS) system (AB SCIEX, Framingham, Mass., USA) operating in triple quadrupole positive mode (ESI+) equipped with an AB Sciex Turbo Ion Spray interface. Acquisition and analysis of data were performed with Analyst software ver. 1.6.2 (Applied Biosystems).

[3] = tested on: lysine peptide (Ac-RFAAKAA-COOH); test: Direct Peptide Reactivity Assay, lysine peptide; settings: for % of Lysine depletion, Avg / % of Lysine depletion, Rep 2 / % of Lysine depletion, Rep 3 / Reactivity Class: 1:50; for % of Lysine depletion, Rep 1: peptide 0.02 mM : test chemical 1 mM (1:50); for Reactivity Class: lysine
Protocol: as §1

[4] = tested on: IL-8; test: IL-8 ELISA on THP-1 cell supernatants; assay type: cell-based, human; settings: preliminary ELISA, CV75
[5] = Oxidation stability of 1% PPD patch test formulation in paraffin (mass spectrometry); assay type: physicochemical; settings: several days in air
Excerpt: (§2) This is true even after 2 days of patch test as the test field remains colourless.

[6] = tested on: sensitized patients; test: Patch test with 1% PPD formulation in paraffin; assay type: in vivo, human; settings: 1% PPD patch test formulation in paraffin
Excerpt: as §2
Thus there remains a need for hair and temporary skin colourings that avoid such allergic responses and may be suitable for use in subjects who show sensitivity to conventional colouring materials.

[7] = tested on: cysteine and lysine peptides; test: Direct Peptide Reactivity Assay, mean of cysteine and lysine depletion (FIG. 12)

## Nc1ccc(N)cc1 [PPD, para-phenylenediamine, reference compound]
[1]
  IC50: 23.5 µM
[2]; 20 min
  % of Cysteine depletion, Avg: 15.1%
  % of Cysteine depletion, Rep 2: 14%
  % of Cysteine depletion, Rep 3: 15.2%
  % of Cysteine depletion, Rep 1: 16.2%
  Reactivity Class: low and Low
[2]; 24 h
  % of Cysteine depletion, Avg: 77.6%
  % of Cysteine depletion, Rep 2: 78%
  % of Cysteine depletion, Rep 3: 77.2%
  % of Cysteine depletion, Rep 1: 77.7%
  Reactivity Class: High
[3]; 20 min
  % of Lysine depletion, Avg: 14.6%
  % of Lysine depletion, Rep 2: 14.4%
  % of Lysine depletion, Rep 3: 14.6%
  % of Lysine depletion, Rep 1: 14.9%
  Reactivity Class: Low
[3]; 24 h
  % of Lysine depletion, Avg: 33.3%
  % of Lysine depletion, Rep 2: 33.1%
  % of Lysine depletion, Rep 3: 33.9%
  % of Lysine depletion, Rep 1: 32.8%
  Reactivity Class: Moderate
[4]
  IL-8 expression: increased expression
[5]
  Oxidation stability in paraffin: protected against oxidation
[6]
  Skin reaction of sensitized patients: clear localised contact dermatitis
[7]; cysteine 1:10 / lysine 1:50 model
  Sensitizing potential predicted from mean peptide depletion: strong sensitizer
[7]; mean of cysteine (1:10) and lysine (1:50), FIG. 12
  Mean peptide depletion: 55.5%
